System: INS-1E rat beta cells, no cytokines, CellTiter-Glo ATP, 48 h
Assay: ATP level change in INS-1E without cytokines, dose response, counter-screen for beta-cell apoptosis protection project, INS-1E rat cells, ATP luminescence, cherry pick (AID 463229)

SMILES | AC50 [µM]
CCOC(=O)/C(=C\c1ccc([N+](=O)[O-])cc1)C(=O)c1cc(C(C)=O)c(Nc2ccccc2)s1 | 2.41
CCCCCCCCSc1nnc(CSc2nc3nc(C)cc(C)n3n2)o1 | 26.1
N#Cc1c(Cl)nsc1NC(=O)c1ccccc1 | 8.12
Cc1ccc2cc(C3C(C#N)=C(N)Oc4c3ccc3cccnc43)c(=O)[nH]c2c1 (stereo not given) | 5.81
CC(Oc1ccc(Cl)cc1Cl)c1nc(-c2ccc(NC(=O)c3cccnc3)cc2)no1 (stereo not given) | 0.906
CC1(C)CCN2CCC(C)(C)c3c(O)ccc1c32 | 13.2
CCN(CC)S(=O)(=O)c1ccc(Oc2ccc(S(=O)(=O)N(CC)CC)cc2)cc1 | 2.88
COc1ccc(CCNc2c(C)c(C)nc3ncnn23)cc1 | 3.68
CCC(O)C1CCN(C(=O)c2cc(COc3ccc4ncccc4c3)on2)CC1 (stereo not given) | 5.52
Cc1nc2ccccn2c1C(=O)/C=C/c1cccc([N+](=O)[O-])c1 | 7.93
O=C1/C(=C/c2cccnc2)CCC/C1=C\c1cccnc1 | 6.89
Cc1ccc2nc(-c3ccccn3)c(NC3CCCC3)n2c1 | 16.6
CCN(CC)c1ccc2nc3ccccc3[n+](CC)c2c1 | 3.19
C#CCn1c(=NC(=O)c2ccc(S(=O)(=O)N3CCc4ccccc4C3)cc2)sc2cc(S(N)(=O)=O)ccc21 | 3.64
CN(C)S(=O)(=O)c1ccc(Nc2nc(C3CC3)nc3c2nnn3Cc2ccccc2Cl)cc1 | 7
O=C(Nc1ccc(OC(F)F)c(Cl)c1)C(c1ccccc1)c1ccccc1 | 13
COc1cc(SC)ccc1C(=O)Nc1nc2ccccc2[nH]1 | 1.21
COCCNC(=O)CSC1=N/C(=C/c2ccc(Cl)c(Cl)c2)C(=O)N1c1ccccc1F | 8.25
CCC[C@@H](CN1CCC[C@H]1CN1C(N)=NC[C@@H]1Cc1ccccc1)N1C[C@@H]([C@H](C)CC)N(CCCC2CCCC2)C1=N | 7.72
COc1ccccc1NC(=O)CN(c1ccc(C23CC4CC(CC(C4)C2)C3)cc1)S(C)(=O)=O | 5.11
CCc1c(C2(O)CCCCC2)[nH]c2cc(C(F)(F)F)ccc12 | 11
Cc1cccc(Nc2nc(NCc3ccco3)c3ccccc3n2)c1 | 8.03
Cc1ccc(N=Nc2c(O)ccc3n[nH]nc23)cc1 | 4.37
CC(C)(C)c1cc(C(=O)N/N=C/c2ccccc2O)n(-c2ccccc2)n1 | 10.1
COc1ccc(C(NC(C)=O)c2cc(Cl)c3cccnc3c2O)cc1OC (stereo not given) | 7.62

SMILES | AC50 [µM]
c1ccc2c(NCCCN3CCOCC3)c3ccccc3nc2c1 | 6.37
COc1cc(SC#N)ccc1N=Cc1c(C)[nH]n(-c2ccc(C)cc2)c1=O | 8.46
CC(C)(C)c1ccc(/C=C(\c2nc3ccccc3[nH]2)S(=O)(=O)c2ccccc2)cc1 | 7.37
O=S(=O)(Nc1nc2ccccc2nc1Nc1ccc(N2CCOCC2)cc1)c1cc(Cl)ccc1Cl | 6.63
O=C(Nc1ccc(C(F)(F)F)cc1)C1CCN(S(=O)(=O)c2ccc(N3CCCC3=O)cc2)CC1 | 4.37
COc1ccc(C)cc1NS(=O)(=O)c1ccc(NC(=O)CN(c2cc([N+](=O)[O-])ccc2C)S(C)(=O)=O)cc1 | 1.11
c1ccc2c(c1)ncn2CCCCOc1ccc2c(c1)CCC2 | 7.37
CCCCSc1nc2sc3c(c2c(=O)n1-c1ccc(C)cc1)CCN(C)C3 | 22.4
O=C(NCc1cccnc1)c1ccc(-c2cc3ccccc3oc2=O)cc1 | 5.35
CC1CCN(Cc2c(C(=O)N/N=C/c3ccccc3O)nnn2-c2nonc2N)CC1 | 5.67
CCOC(=O)C1CCN(Cc2ccc(O)c3ncccc23)CC1 | 12.5
Cc1cccc(Cn2nnc3c2C(=O)c2ccccc2C3=O)c1 | 10.5
CN(C)c1nc(N/N=C/c2ccccc2O)nc(Nc2ccc(F)cc2)n1 | 11.3
O=S(=O)(/C(=C/c1ccc(C(F)(F)F)cc1)c1nc2ccccc2[nH]1)c1ccccc1 | 5.45
CCc1ccc(S(=O)(=O)/N=C2\C=C(Nc3ccc(O)cc3)C(=O)c3ccccc32)cc1 | 2.21
CCOC(=O)COc1ccc2ccccc2c1/C=C/[N+](=O)[O-] | 10.6
COc1ccc(N(C(=O)CCl)C(C(=O)NCCc2ccccc2)c2cccs2)cc1Cl (stereo not given) | 7.56
CCCCn1c(=N)n(CC(=O)c2ccc(Br)s2)c2ccccc21 | 13.1
CCC1(c2ccc(F)cc2)NC(=O)N(CC(=O)Nc2ccc(-c3nc4ccc(C)cc4s3)cc2)C1=O (stereo not given) | 12.4
Cc1cc2nc(-c3ccc(NC(=O)c4cccnc4)cc3)oc2cc1C | 9.26
O=C(NNC(=O)C12CC3CC(CC(C3)C1)C2)c1ccccn1 | 12.7
Cc1sc2cc3c(c(C(=O)c4ccccc4)[n+]2c1C)-c1cccc2cccc-3c12 | 2.27
Nc1nonc1-n1nnc(C(=O)N/N=C/c2cc(Br)ccc2O)c1CNc1ccccc1 | 8.29
Cc1cc(Br)cc(/C=N/NC(=O)c2ccc3c(c2)OCO3)c1O | 7.43
CC1=NN(c2nc(-c3ccc(C)cc3)cs2)C(=O)C1N=Nc1ccc(C(N)=O)cc1 (stereo not given) | 3.53

Reference: PubChem BioAssay AID463229 (Broad Institute, 2010)
